Laboratory results taken from patent publication US20250230193A1, “CYCLIC COMPOUND HAVING SELECTIVE KRAS INHIBITORY EFFECT ON HRAS AND NRAS” (CHUGAI SEIYAKU KABUSHIKI KAISHA, priority 2022, published 2025).
Where a SMILES comes first, the peptide text is derived from it. Bridges are numbered along the chain shown (N, C = ends). [ ]: non-standard residue; d: D form. The star is where a group is joined. hPhe(3-Cl-4-CF3) = N[C@@H](CCc1ccc(C(F)(F)F)c(Cl)c1)C(=O)O; NPrPhe(4-CF3) = CCCN[C@@H](Cc1ccc(C(F)(F)F)cc1)C(=O)O; Morpholine(3S-CO) = O=C(O)[C@@H]1COCCN1; NMeGly(cPent) = CN[C@H](C(=O)O)C1CCCC1; NMeD = CN[C@@H](CC(=O)O)C(=O)O; NMeL = CN[C@@H](CC(C)C)C(=O)O; Morpholide = C1CN(*)CCO1; NMeA = CN[C@@H](C)C(=O)O; Ac5c = NC1(C(=O)O)CCCC1; Aze = O=C(O)[C@@H]1CCN1; Sar = CNCC(=O)O

What was measured:
[1] = target: GDP-bound HRAS wild-type protein (Homo sapiens, UniProt P01112); experiment: Binding to HRAS by surface plasmon resonance (SPR), Single Cycle Kinetics; settings: for HRAS/KRAS (ratio of KD value with respect to GDP-bound HRAS wild-type protein to KD value with respect to KRAS): class symbols
[2] = target: GDP-bound NRAS wild-type protein (Homo sapiens, UniProt P01111); experiment: Binding to NRAS by surface plasmon resonance (SPR), Single Cycle Kinetics; settings: for NRAS/KRAS (ratio of KD value with respect to GDP-bound NRAS wild-type protein to KD value with respect to KRAS): class symbols
[3] = KD ratio, GDP-bound HRAS wild-type vs GDP-bound KRAS wild-type, SPR
[4] = KD ratio, GDP-bound NRAS wild-type vs GDP-bound KRAS wild-type, SPR

Sequence of GDP-bound NRAS wild-type protein (P01111 whole entry): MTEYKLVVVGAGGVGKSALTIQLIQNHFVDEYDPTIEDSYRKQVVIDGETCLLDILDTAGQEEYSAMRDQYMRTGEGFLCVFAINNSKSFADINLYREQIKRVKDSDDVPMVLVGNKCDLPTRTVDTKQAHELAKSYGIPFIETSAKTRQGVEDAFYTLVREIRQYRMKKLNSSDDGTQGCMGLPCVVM
Sequence of GDP-bound HRAS wild-type protein (P01112 whole entry): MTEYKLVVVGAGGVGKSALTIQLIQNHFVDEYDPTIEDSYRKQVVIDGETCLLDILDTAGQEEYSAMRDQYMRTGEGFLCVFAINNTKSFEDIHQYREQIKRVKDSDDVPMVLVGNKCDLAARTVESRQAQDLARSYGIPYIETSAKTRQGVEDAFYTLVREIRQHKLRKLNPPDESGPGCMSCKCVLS

CCOC[C@H]1C(=O)N[C@@H]([C@@H](C)CC)C(=O)N(C)CC(=O)N(C)[C@H]2C/C=C\CCN(C2=O)[C@@H](Cc2ccc(C)cc2)C(=O)N(C)CC(=O)N[C@@H](CCc2ccc(C(F)(F)F)c(OC)c2)C(=O)N2C[C@@H](C)C[C@H]2C(=O)NC2(CC(C)(C)C2)C(=O)N(C)[C@@H](C2CCCC2)C(=O)N(C)[C@H](C(=O)N(C)C)CC(=O)N1C [PP2505]
HRAS/KRAS (ratio of KD value with respect to HRAS to KD value with respect to KRAS) ([1]; SPR, GDP-bound HRAS wild-type vs GDP-bound KRAS wild-type): B (a compound having 3 or more and less than 10 is denoted as B)
NRAS/KRAS (ratio of KD value with respect to NRAS to KD value with respect to KRAS) ([2]; SPR, GDP-bound NRAS wild-type vs GDP-bound KRAS wild-type): A (a compound having 10 or more and less than 20 is denoted as A)

CCCOC[C@H]1C(=O)N[C@@H]([C@@H](C)CC)C(=O)N(C)CC(=O)N(C)[C@H]2C/C=C\CCN(C2=O)[C@@H](Cc2ccc(C(F)(F)F)cc2)C(=O)N(C)CC(=O)N[C@@H](CCc2cc(F)c(C(F)(F)F)c(F)c2)C(=O)N2CC(F)(F)C[C@H]2C(=O)NC2(CC(C)(C)C2)C(=O)N(C)[C@@H](C2CCCC2)C(=O)N(C)[C@H](C(=O)N(C)C)CC(=O)N1C [PP1718]
HRAS/KRAS (ratio of KD value for HRAS to KD value for KRAS) [1, 3]: A (a compound having 10 or more and less than 20 is denoted as A)
NRAS/KRAS (ratio of KD value for NRAS to KD value for KRAS) [2, 4]: AA (a compound having 20 or more is denoted as AA)

CCCN1C(=O)[C@@H]2CCN2C(=O)[C@H](C)N(C)C(=O)[C@H]([C@@H](C)CC)NC(=O)[C@H](CC(C)C)N(C)C(=O)C[C@@H](C(=O)N2CCOCC2)N(C)C(=O)[C@H](C2CCCC2)N(C)C(=O)C2(CCCC2)NC(=O)[C@@H]2COCCN2C(=O)[C@H](CCc2ccc(C(F)(F)F)c(Cl)c2)NC(=O)CN(C)C(=O)[C@@H]1Cc1ccc(C(F)(F)F)cc1 [PP0286] ([NMeL]I[NMeA][Aze][NPrPhe(4-CF3)][Sar][hPhe(3-Cl-4-CF3)][Morpholine(3S-CO)][Ac5c][NMeGly(cPent)][NMeD]-Morpholide; lactam N-11)
HRAS/KRAS (ratio of KD for GDP-bound HRAS wild-type to KD for KRAS) ([1]; KD ratio HRAS/KRAS, SPR): B (a compound having 3 or more and less than 10 is denoted as B)
NRAS/KRAS (ratio of KD for GDP-bound NRAS wild-type to KD for KRAS) ([2]; KD ratio NRAS/KRAS, SPR): C (A compound having a KD ratio of 0.1 or more and less than 3 is denoted as C)

CCCC[C@H]1C(=O)N[C@@H]([C@@H](C)CC)C(=O)N(C)CC(=O)N(C)[C@H]2C/C=C\CCN(C2=O)[C@@H](Cc2ccc(C)cc2)C(=O)N(C)CC(=O)N[C@@H](CCc2cc(F)c(C(F)(F)F)c(F)c2)C(=O)N2C[C@H](OCC)C[C@H]2C(=O)NC2(CCC2)C(=O)N(C)[C@@H](C2CCCC2)C(=O)N(C)[C@H](C(=O)N(C)CC)CC(=O)N1C [PP2796]
HRAS/KRAS (ratio of KD value with respect to GDP-bound HRAS wild-type protein to KD value with respect to KRAS) ([1]; KD ratio HRAS/KRAS): A (a compound having 10 or more and less than 20 is denoted as A)
NRAS/KRAS (ratio of KD value with respect to GDP-bound NRAS wild-type protein to KD value with respect to KRAS) ([2]; KD ratio NRAS/KRAS): A (a compound having 10 or more and less than 20 is denoted as A)

CCO[C@@H]1C[C@H]2C(=O)NC3(CCC3)C(=O)N(C)[C@@H](C3CCCC3)C(=O)N(C)[C@H](C(=O)N(C)C)CC(=O)N(C)[C@@H](CC)C(=O)N[C@@H]([C@@H](C)CC)C(=O)N(C)CC(=O)N(C)[C@H]3CC=C(C)CN(C3=O)[C@@H](Cc3ccc(C(F)(F)F)cc3)C(=O)N(C)CC(=O)N[C@@H](CCc3cc(F)c(C(F)(F)F)c(F)c3)C(=O)N2C1 [PP0827]
HRAS/KRAS (ratio of KD value with respect to HRAS to KD value with respect to KRAS) [1, 3]: C (A compound having a KD ratio of 0.1 or more and less than 3 is denoted as C)
NRAS/KRAS (ratio of KD value with respect to NRAS to KD value with respect to KRAS) [2, 4]: C (A compound having a KD ratio of 0.1 or more and less than 3 is denoted as C)

CCC[C@H]1C(=O)N[C@@H](CC(C)C)C(=O)N2C[C@@H](OC)C[C@H]2C(=O)N(C)[C@H]2C/C=C\CCN(C2=O)[C@@H](Cc2ccc(C)cc2)C(=O)N(C)CC(=O)N[C@@H](CCc2cc(F)c(C(F)(F)F)c(F)c2)C(=O)N2C[C@H](OCC)C[C@H]2C(=O)NC2(CCC2)C(=O)N(C)[C@@H](C2CCCC2)C(=O)N(C)[C@H](C(=O)N(C)C)CC(=O)N1C [PP2547]
HRAS/KRAS (ratio of KD value with respect to GDP-bound HRAS wild-type protein to KD value with respect to KRAS) ([1]; KD ratio HRAS/KRAS): B (a compound having 3 or more and less than 10 is denoted as B)
NRAS/KRAS (ratio of KD value with respect to GDP-bound NRAS wild-type protein to KD value with respect to KRAS) ([2]; KD ratio NRAS/KRAS): A (a compound having 10 or more and less than 20 is denoted as A)

CCO[C@@H]1C[C@H]2C(=O)NC3(CCC3)C(=O)N(C)[C@@H](C3CCCC3)C(=O)N(C)[C@H](C(=O)N3CCOCC3)CC(=O)N(C)[C@@H](CC(C)C)C(=O)N[C@@H]([C@@H](C)CC)C(=O)N(C)CC(=O)N(C)[C@H]3CCCCCN(C3=O)[C@@H](Cc3ccc(F)cc3Cl)C(=O)N(C)CC(=O)N[C@@H](CCc3cc(F)c(C(F)(F)F)c(F)c3)C(=O)N2C1 [PP0918]
HRAS/KRAS (ratio of KD value with respect to HRAS to KD value with respect to KRAS) [1, 3]: B (a compound having 3 or more and less than 10 is denoted as B)
NRAS/KRAS (ratio of KD value with respect to NRAS to KD value with respect to KRAS) [2, 4]: B (a compound having 3 or more and less than 10 is denoted as B)
